According to PubChem BioAssay AID1117361 (Southern Research Institute, 2015):

Target: Protein Tat (Human immunodeficiency virus type 1 group M subtype B (isolate HXB2)) (UniProt P04608)
Experiment: HIV-1 Tat–TAR interaction blockers – biochemical, fluorescence polarization, FAM-labeled TAR RNA, counter-screen for Vif-APOBEC3G degradation inhibitor project, dose response (AID 1117361)
Conditions: Tat-TAR RNA binding

Sequence of Protein Tat (Human immunodeficiency virus type 1 group M subtype B (isolate HXB2)) (P04608 whole entry, looked up): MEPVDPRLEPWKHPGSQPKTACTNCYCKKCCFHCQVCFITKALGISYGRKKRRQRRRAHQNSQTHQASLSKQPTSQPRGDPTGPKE

Compound | IC50 [µM]
Cc1c(Cl)cccc1NS(=O)(=O)c1ccc2c(c1)C1C=CCC1C(c1ccc(C(=O)O)cc1)N2 (stereo not drawn) | 8.54
CCn1c(SC(C)C(=O)O)nc2sc3c(c2c1=O)CCC3 (stereo not drawn) | 70.4
Cc1cccc(-n2c(Cc3cc(=O)[nH]c(=O)[nH]3)nnc2SC(C)C)c1 | 28.2
Cc1onc(-c2c(F)cccc2Cl)c1C(=O)Nc1nnc(C2CC2)s1 | 60.7
O=C1N=C(N2CCN(c3ccccc3)CC2)S/C1=C\c1ccco1 | 11.9
COCc1cc(C)nc(NCCO)c1C#N | 1.44
O=C1CC(=O)N(Cc2ccco2)C(=S)N1 | 1.56
Cc1cc(C(=O)COC(=O)c2cc(O)c3ccccc3c2O)c(C)n1CC1CCCO1 (stereo not drawn) | 9.14
O/N=C1\CCC\C1=C/c1ccco1 | 27.2
O=C(O)c1cccc(-n2cccc2/C=C/[N+](=O)[O-])c1 | 5.57
Cc1ccc(N/N=C/c2c(C)c(C#N)c(=O)n(C)c2O)cc1C | 11.9
O=c1cc(-c2ccccc2Cl)c2c([nH]1)CCC2 | 18.8
CCn1c(C)nc2cc(C(=O)N/N=C/c3ccc(O)c(O)c3O)ccc21 | 15.3
O=S(=O)(O)c1cc(O)c2c(O)c(N=Nc3cc(Cl)ccc3O)c(S(=O)(=O)O)cc2c1 | 15.9
O=C(NCc1ccccn1)c1coc(=O)c(Br)c1 | 88.3
CCOC(=O)C1=C(N)n2c(s/c(=C/c3ccco3)c2=O)=C(C(=O)OC)C1c1ccco1 (stereo not drawn) | 9.78
CN1CCc2c(sc3c2c(NCc2ccco2)nc2nnnn23)C1 | 79.8
CS(=O)(=O)c1ccc2c(c1)SC1=NC(=O)/C(=C/c3ccco3)C(=N)N12 | 10.4
O=C1/C(=C/C=C/c2ccco2)SC(=S)N1c1ccc(O)cc1 | 19.1
C=CCn1c(C)cc(-c2csc(N)n2)c1C | 5.49
CC1=C(C#N)C(=O)N(C2CCS(=O)(=O)C2)C(=O)/C1=C\c1ccco1 (stereo not drawn) | 2.88

Compound | IC50 [µM]
COc1ccc2[nH]c3c4c(ccc3c2c1)C(=O)C=CC4=O | 24.7
O=C(O)c1ccc(-n2cccc2/C=N\NC(=O)c2cc3cc(Br)ccc3o2)cc1 | 13.8
Cc1c(Br)c(O)c(Br)c2sc(=O)oc12 | 25.3
Cc1onc(-c2ccccc2Cl)c1C(=O)NCc1ccco1 | 6.65
C/C(=C\C(=O)c1ccc(C)cc1)Nc1cccc(O)c1 | 10.4
C=C(C)C(=O)Nc1cccc(C2=NOC3(C2)C[C@@H](C(N)=O)N(C(=O)CC(c2ccccc2)c2ccccc2)C3)c1 (stereo partly drawn) | 29.3
CC(C)CNC1=CC(=O)CC(c2ccco2)C1 (stereo not drawn) | 31.3
Oc1ccc(N=Cc2sc3ccccc3c2Cl)cc1 | 62.3
O=C(O)CCCNc1cc(N2CCC3(CC2)OCCO3)c2noc3c2c1C(=O)c1ccccc1-3 | 3.59
CCN(CC)c1ccc(NC2CC(=O)N(CCc3ccc(OC)cc3)C2=O)cc1 (stereo not drawn) | 27.3
Cc1cc(C)nc(N/N=C/C2=C(N3CCOCC3)C(=C\c3ccc(Cl)cc3)/CC2)n1 | 72.4
O=C(O)CSc1c2c(nc3cc(C(=O)Nc4cccc(C(F)(F)F)c4)ccc13)CCC2 | 56.2
O=C(COC(=O)/C=C/c1ccco1)Nc1ncc(C(F)(F)F)cc1Cl | 20.2
Cc1ccc(NC(=O)CN(C)C(=O)c2cccc(-n3cccc3)c2)cc1 | 38
COc1cccc(NS(=O)(=O)c2ccc3c(c2)C2C=CCC2C(c2ccc(C(=O)O)cc2)N3)c1 (stereo not drawn) | 3.59
CSc1ccc(/C=N/Nc2cccc(C(=O)O)c2)cc1 | 5.81
CC(C)CC(=O)Nc1nnc(-c2ccco2)s1 | 53.8
Cc1ccc(-n2nc(C)c(C3C(C#N)=C(N)Oc4c3c(=O)oc3ccccc43)c2Cl)cc1 (stereo not drawn) | 25.2
O=C(NC(=S)Nc1cccc(S(=O)(=O)NC2=NCCC2)c1)c1cc(-c2ccco2)nc2ccccc12 | 8.04
CCC(c1nnnn1C(C)(C)CC)N(CCCO)Cc1cc2cc(C)cc(C)c2[nH]c1=O (stereo not drawn) | 1.88
Cc1ccc2cc(C(c3nnnn3Cc3ccccc3)N3CCc4ccccc43)c(=O)[nH]c2c1 (stereo not drawn) | 46.4

Compound | IC50 [µM]
CC1(C)OC(=O)C(=C2CCCN2)C(=O)O1 | 0.882
Cc1cc(C)c(C(=O)/C=C/c2ccco2)c(=O)[nH]1 | 12.1
COc1cccc(C2C(C#N)=C(N)OC3=C2C(=O)CC(c2ccco2)C3)c1OCc1ccc(F)cc1 (stereo not drawn) | 12.2
O=[N+]([O-])c1cc(CN2CCOCC2)c2cccnc2c1O | 15.8
Cc1cc(C(=O)O)ccc1-n1c(C)ccc1C | 5.78
CC(C)(C)NC(=O)C(c1ccncc1)N(C(=O)CNC(=O)c1ccco1)c1ccc2c(c1)OCO2 (stereo not drawn) | 44.1
O=[N+]([O-])c1ccccc1S(=O)(=O)NC1CCCC1 | 45
N#C/C(=C/c1ccc(Br)o1)C(N)=S | 16
CC1CCC/C(=C\Nc2ccc(C(=O)O)c(O)c2)C1=O (stereo not drawn) | 5.37
Cc1cc(C)c([N+](=O)[O-])cc1-c1ccc(/C=N/c2c(-c3ccco3)nc3ccccn23)o1 | 57.5
O=C(/C=C/c1cccs1)Nc1ccc(Br)cn1 | 31.4
O=C(CN1CCN(S(=O)(=O)c2ccc(Cl)s2)CC1)NCc1ccc(Cl)cc1 | 23.2
Cc1cccc2cc(-c3ccccc3)c(-c3ccccc3)c[n+]12 | 15
CCOC(=O)C1=C(C)N=C2SC(C(=O)OC)=CC(=O)N2C1c1cc(OC)c(OC)c(OC)c1 (stereo not drawn) | 31.4
Nc1cccc2c(O)cc(S(=O)(=O)O)cc12 | 19.3
Nc1ccc(N(CCO)CCO)cc1 | 9.62
O=S(=O)(O)c1cc(O)c2ccc(Nc3ccccc3)cc2c1 | 12.5
CC(=O)c1ccc(S(=O)(=O)Nc2cccc(-n3cnnn3)c2)cc1 | 74.2
COc1ccc(CCNC(=O)c2ccc3nc(-c4ccco4)c(-c4ccco4)nc3c2)cc1OC | 4.32
Cc1ccc(C)n1-c1cccc(C(=O)O)c1 | 2.07
O=C(CCCN1C(=O)/C(=C\c2ccco2)SC1=S)Nc1ccc2ccccc2c1 | 48.3

Compound | IC50 [µM]
COc1ccc2nc(-c3ccco3)c(-c3ccco3)nc2c1 | 3.13
C=CCN=c1scc(-c2ccco2)n1/N=C/c1ccc(O)c(O)c1O | 35.4
O=C1c2cccnc2C(Nc2ccccc2)N1Cc1ccco1 (stereo not drawn) | 79.2
O=C1/C(=C\c2ccco2)SC(=S)N1c1ccccc1 | 9.64
CCCc1cc(=O)oc2cc(C)c(CN3CCCC3)c(O)c12 | 16.9
CN1CCc2cccc3c2[C@@H]1Cc1ccc(O)c(O)c1-3 | 9.08
O=C1NC(=O)N(Cc2ccccc2)C(=O)/C1=C\C=C\c1ccco1 | 30.9
C=CC(=O)N1C/C(=C/c2ccc(F)cc2)C(=O)/C(=C\c2ccc(F)cc2)C1 | 89.5
Cc1cc(NC(=O)Cc2cccs2)no1 | 55.9
Cc1oc(C)c2c(=O)ccc3c(c12)OC(N)=C(C#N)C3c1ccccc1 (stereo not drawn) | 81.9
Cc1ccc(C2C(C#N)=C(N)Oc3c2oc(CO)cc3=O)o1 (stereo not drawn) | 5.77
Cc1ccc(C)c2[nH]c(=O)c(CN(Cc3ccc4c(c3)OCO4)Cc3nnnn3Cc3ccco3)cc12 | 39.6
C=C(C)C(=O)Nc1ccc2c(c1)OCCOCCOCCO2 | 21.6
CCOc1cccc(CNc2ccc(O)cc2)c1OCc1ccccc1Cl | 63
CCCCN1C2CCCC1CC(NC(=O)c1ccc(OC)c(OC)c1)C2 (stereo not drawn) | 78.3
NC(=O)Cn1c(=O)n(Cc2ccco2)c(=O)c2c3c(sc21)CCCCC3 | 15.5
O=c1oc2c3c4c(cc2s1)CCCN4CCC3 | 26
COc1ccc2nc3ccccc3nc2c1N | 81.6
CCOC(=O)C1CCN(C(c2cccs2)c2sc3nc(C)nn3c2O)CC1 (stereo not drawn) | 1.96
CCOC(=O)C1CCN(C(=O)COc2ccc(S(=O)(=O)NC(C)C)cc2)CC1 | 81.8
